For orientation: melting point means the temperature of the solid-liquid transition.

With `Nc1nc(NC(=O)C2CC2)cnc1-c1cc(Cl)cc(Cl)c1Cl` [Example 9, 2-Amino-6-cyclopropylcarbonylamino-3-(2,3,5-trichlorophenyl)pyrazine], the melting point lay within 240 to 244 °C.
The same measure for `N#Cc1nc(-c2cc(Cl)cc(Cl)c2Cl)c(N)nc1N` [Example 17, 5-Cyano-2,6-Diamino-3-(2,3,5-trichlorophenyl)pyrazine]: 277 to 279 °C; for `O=C(Nc1cnc(-c2cc(Cl)cc(Cl)c2Cl)c(NC(=O)C2CC2)n1)C1CC1` [Example 9, 2,6-Dicyclopropylcarbonylamino-3-(2,3,5-trichlorophenyl) pyrazine]: 212 to 214 °C.
Regarding `CC(C)C(=O)Nc1cnc(-c2cc(Cl)cc(Cl)c2Cl)c(NC(=O)C(C)C)n1` [Example 10, 2,6-Diisopropylcarbonylamino-3-(2,3,5-trichlorophenyl) pyrazine], the melting point is 227 to 229 °C.

For the origin of these results see patent US6599905B2, “Pyrazine compounds” (SmithKline Beecham Corporation, priority 1997, dated 2003).
